Measured values reported in US12415816B2, “Benzothiazole derivatives and 7-aza-benzothiazole derivatives as janus kinase 2 inhibitors and uses thereof” (Dana-Farber Cancer Institute, Inc., priority 2018, dated 2025).

Columns and labels:
JAK2 = JAK2 (Homo sapiens (Human), UniProt O60674); assay: JAK2 Z-Lyte biochemical assay; conditions: commercial JAK2 Z-Lyte assay from Invitrogen
Procedure: The JAK2 Z-Lyte biochemical assay was performed according to manufacturer's instructions (Life Technologies).

ABL1(Q252H) = ABL1(Q252H) (Homo sapiens (Human), UniProt P00519, Q252H); assay: KINOMEscan kinase selectivity profiling; format: binding; conditions: read-out: Ambit KINOMEscan of compound I-5 at 10 μM (percent control %)
ABL1(T315I) = ABL1(T315I) (Homo sapiens (Human), UniProt P00519, T315I); assay: KINOMEscan kinase selectivity profiling; format: binding; conditions: read-out: Ambit KINOMEscan of compound I-5 at 10 μM (percent control %)
ABL2 = ABL2 (Homo sapiens (Human), UniProt P42684); assay: KINOMEscan kinase selectivity profiling; format: binding; conditions: read-out: Ambit KINOMEscan of compound I-5 at 10 μM (percent control %)
BRAF(V600E) = BRAF(V600E) (Homo sapiens (Human), UniProt P15056, V600E); assay: KINOMEscan kinase selectivity profiling; format: binding; conditions: read-out: Ambit KINOMEscan of compound I-5 at 10 μM (percent control %)
CDC2L2 = CDC2L2 (Homo sapiens (Human), UniProt Q9UQ88); assay: KINOMEscan kinase selectivity profiling; format: binding; conditions: read-out: Ambit KINOMEscan of compound I-5 at 10 μM (percent control %)
CDKL3 = CDKL3 (Homo sapiens (Human), UniProt Q8IVW4); assay: KINOMEscan kinase selectivity profiling; format: binding; conditions: read-out: Ambit KINOMEscan of compound I-5 at 10 μM (percent control %)
CIT = CIT (Homo sapiens (Human), UniProt O14578); assay: KINOMEscan kinase selectivity profiling; format: binding; conditions: read-out: Ambit KINOMEscan of compound I-5 at 10 μM (percent control %)
CSF1R = CSF1R (Homo sapiens (Human), UniProt P07333); assay: KINOMEscan kinase selectivity profiling; format: binding; conditions: read-out: Ambit KINOMEscan of compound I-5 at 10 μM (percent control %)
CSF1R, sequence (P07333 20-972): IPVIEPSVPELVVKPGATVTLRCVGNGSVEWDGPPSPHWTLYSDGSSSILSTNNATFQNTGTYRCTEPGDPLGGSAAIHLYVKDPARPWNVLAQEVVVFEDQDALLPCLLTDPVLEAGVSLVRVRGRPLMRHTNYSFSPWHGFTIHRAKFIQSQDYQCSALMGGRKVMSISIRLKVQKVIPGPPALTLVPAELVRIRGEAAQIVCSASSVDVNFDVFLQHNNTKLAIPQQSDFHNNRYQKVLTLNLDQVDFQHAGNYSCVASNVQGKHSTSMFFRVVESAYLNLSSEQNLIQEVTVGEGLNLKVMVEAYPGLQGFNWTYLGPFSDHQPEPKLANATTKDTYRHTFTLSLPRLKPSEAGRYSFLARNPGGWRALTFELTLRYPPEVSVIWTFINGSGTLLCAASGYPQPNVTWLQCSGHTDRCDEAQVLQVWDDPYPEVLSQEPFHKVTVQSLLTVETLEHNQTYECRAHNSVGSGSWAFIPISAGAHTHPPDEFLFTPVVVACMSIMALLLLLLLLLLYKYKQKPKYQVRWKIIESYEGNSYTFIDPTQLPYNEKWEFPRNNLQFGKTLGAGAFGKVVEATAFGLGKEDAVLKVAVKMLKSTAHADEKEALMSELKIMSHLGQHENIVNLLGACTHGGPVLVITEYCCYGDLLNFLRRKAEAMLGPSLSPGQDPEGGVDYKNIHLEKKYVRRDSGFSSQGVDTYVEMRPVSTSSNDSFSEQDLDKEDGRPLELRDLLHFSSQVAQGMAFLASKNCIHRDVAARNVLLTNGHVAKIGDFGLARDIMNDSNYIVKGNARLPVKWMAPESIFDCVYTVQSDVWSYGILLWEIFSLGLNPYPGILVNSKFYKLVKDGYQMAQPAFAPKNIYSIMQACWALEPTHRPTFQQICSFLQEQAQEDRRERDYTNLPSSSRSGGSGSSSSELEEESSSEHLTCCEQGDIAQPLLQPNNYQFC

EPHA4 = EPHA4 (Homo sapiens (Human), UniProt P54764); assay: KINOMEscan kinase selectivity profiling; format: binding; conditions: read-out: Ambit KINOMEscan of compound I-5 at 10 μM (percent control %)
EPHA6 = EPHA6 (Homo sapiens (Human), UniProt Q9UF33); assay: KINOMEscan kinase selectivity profiling; format: binding; conditions: read-out: Ambit KINOMEscan of compound I-5 at 10 μM (percent control %)
EPHA8 = EPHA8 (Homo sapiens (Human), UniProt P29322); assay: KINOMEscan kinase selectivity profiling; format: binding; conditions: read-out: Ambit KINOMEscan of compound I-5 at 10 μM (percent control %)
EPHB1 = EPHB1 (Homo sapiens (Human), UniProt P54762); assay: KINOMEscan kinase selectivity profiling; format: binding; conditions: read-out: Ambit KINOMEscan of compound I-5 at 10 μM (percent control %)
EPHB2 = EPHB2 (Homo sapiens (Human), UniProt P29323); assay: KINOMEscan kinase selectivity profiling; format: binding; conditions: read-out: Ambit KINOMEscan of compound I-5 at 10 μM (percent control %)
EPHB2, sequence (P29323 19-1055): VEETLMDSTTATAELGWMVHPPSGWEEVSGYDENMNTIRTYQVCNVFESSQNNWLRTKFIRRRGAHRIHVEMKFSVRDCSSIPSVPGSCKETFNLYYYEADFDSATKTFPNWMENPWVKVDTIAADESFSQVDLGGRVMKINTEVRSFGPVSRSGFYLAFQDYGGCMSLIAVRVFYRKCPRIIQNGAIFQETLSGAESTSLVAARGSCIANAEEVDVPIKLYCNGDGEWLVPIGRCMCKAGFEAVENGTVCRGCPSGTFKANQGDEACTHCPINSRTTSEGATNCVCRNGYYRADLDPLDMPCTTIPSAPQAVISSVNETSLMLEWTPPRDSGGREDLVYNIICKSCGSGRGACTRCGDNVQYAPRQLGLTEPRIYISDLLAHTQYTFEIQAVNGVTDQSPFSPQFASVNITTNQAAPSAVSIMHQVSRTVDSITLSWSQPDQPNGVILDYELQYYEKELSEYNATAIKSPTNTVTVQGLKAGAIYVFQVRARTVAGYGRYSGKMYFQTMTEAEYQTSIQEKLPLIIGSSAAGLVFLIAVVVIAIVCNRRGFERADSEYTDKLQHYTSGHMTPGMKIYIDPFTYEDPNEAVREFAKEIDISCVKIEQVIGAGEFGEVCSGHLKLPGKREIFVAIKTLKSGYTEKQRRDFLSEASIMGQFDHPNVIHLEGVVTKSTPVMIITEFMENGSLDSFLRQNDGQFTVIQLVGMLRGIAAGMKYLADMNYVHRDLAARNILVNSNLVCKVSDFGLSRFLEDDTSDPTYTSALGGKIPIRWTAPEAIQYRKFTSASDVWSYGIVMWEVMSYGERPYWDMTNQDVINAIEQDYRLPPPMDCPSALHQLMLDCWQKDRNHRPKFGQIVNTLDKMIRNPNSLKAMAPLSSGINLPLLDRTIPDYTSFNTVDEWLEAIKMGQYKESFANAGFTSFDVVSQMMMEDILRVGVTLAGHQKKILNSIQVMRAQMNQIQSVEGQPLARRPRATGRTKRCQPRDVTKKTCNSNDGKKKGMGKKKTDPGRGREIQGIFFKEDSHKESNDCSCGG

EPHB4 = EPHB4 (Homo sapiens (Human), UniProt P54760); assay: KINOMEscan kinase selectivity profiling; format: binding; conditions: read-out: Ambit KINOMEscan of compound I-5 at 10 μM (percent control %)
FES = FES (Homo sapiens (Human), UniProt P07332); assay: KINOMEscan kinase selectivity profiling; format: binding; conditions: read-out: Ambit KINOMEscan of compound I-5 at 10 μM (percent control %)
FGR = FGR (Homo sapiens (Human), UniProt P09769); assay: KINOMEscan kinase selectivity profiling; format: binding; conditions: read-out: Ambit KINOMEscan of compound I-5 at 10 μM (percent control %)
FLT4 = FLT4 (Homo sapiens (Human), UniProt P35916); assay: KINOMEscan kinase selectivity profiling; format: binding; conditions: read-out: Ambit KINOMEscan of compound I-5 at 10 μM (percent control %)
HPK1 = HPK1 (Homo sapiens (Human), UniProt Q92918); assay: KINOMEscan kinase selectivity profiling; format: binding; conditions: read-out: Ambit KINOMEscan of compound I-5 at 10 μM (percent control %)
INSRR = INSRR (Homo sapiens (Human), UniProt P14616); assay: KINOMEscan kinase selectivity profiling; format: binding; conditions: read-out: Ambit KINOMEscan of compound I-5 at 10 μM (percent control %)
ITK = ITK (Homo sapiens (Human), UniProt Q08881); assay: KINOMEscan kinase selectivity profiling; format: binding; conditions: read-out: Ambit KINOMEscan of compound I-5 at 10 μM (percent control %)
KIT = KIT (Homo sapiens (Human), UniProt P10721); assay: KINOMEscan kinase selectivity profiling; format: binding; conditions: read-out: Ambit KINOMEscan of compound I-5 at 10 μM (percent control %)
KIT(L576P) = KIT(L576P) (Homo sapiens (Human), UniProt P10721, L576P); assay: KINOMEscan kinase selectivity profiling; format: binding; conditions: read-out: Ambit KINOMEscan of compound I-5 at 10 μM (percent control %)
KIT(V559D) = KIT(V559D) (Homo sapiens (Human), UniProt P10721, V559D); assay: KINOMEscan kinase selectivity profiling; format: binding; conditions: read-out: Ambit KINOMEscan of compound I-5 at 10 μM (percent control %)
LYN = LYN (Homo sapiens (Human), UniProt P07948); assay: KINOMEscan kinase selectivity profiling; format: binding; conditions: read-out: Ambit KINOMEscan of compound I-5 at 10 μM (percent control %)
MAP4K2 = MAP4K2 (Homo sapiens (Human), UniProt Q12851); assay: KINOMEscan kinase selectivity profiling; format: binding; conditions: read-out: Ambit KINOMEscan of compound I-5 at 10 μM (percent control %)
MERTK = MERTK (Homo sapiens (Human), UniProt Q12866); assay: KINOMEscan kinase selectivity profiling; format: binding; conditions: read-out: Ambit KINOMEscan of compound I-5 at 10 μM (percent control %)
p38-delta = p38-delta (Homo sapiens (Human), UniProt O15264); assay: KINOMEscan kinase selectivity profiling; format: binding; conditions: read-out: Ambit KINOMEscan of compound I-5 at 10 μM (percent control %)
PDGFRA = PDGFRA (Homo sapiens (Human), UniProt P16234); assay: KINOMEscan kinase selectivity profiling; format: binding; conditions: read-out: Ambit KINOMEscan of compound I-5 at 10 μM (percent control %)
PDGFRB = PDGFRB (Homo sapiens (Human), UniProt P09619); assay: KINOMEscan kinase selectivity profiling; format: binding; conditions: read-out: Ambit KINOMEscan of compound I-5 at 10 μM (percent control %)
PFTAIRE2 = PFTAIRE2 (Homo sapiens (Human), UniProt Q96Q40); assay: KINOMEscan kinase selectivity profiling; format: binding; conditions: read-out: Ambit KINOMEscan of compound I-5 at 10 μM (percent control %)
PFTK1 = PFTK1 (Homo sapiens (Human), UniProt O94921); assay: KINOMEscan kinase selectivity profiling; format: binding; conditions: read-out: Ambit KINOMEscan of compound I-5 at 10 μM (percent control %)
PFTK1, sequence (O94921 whole entry): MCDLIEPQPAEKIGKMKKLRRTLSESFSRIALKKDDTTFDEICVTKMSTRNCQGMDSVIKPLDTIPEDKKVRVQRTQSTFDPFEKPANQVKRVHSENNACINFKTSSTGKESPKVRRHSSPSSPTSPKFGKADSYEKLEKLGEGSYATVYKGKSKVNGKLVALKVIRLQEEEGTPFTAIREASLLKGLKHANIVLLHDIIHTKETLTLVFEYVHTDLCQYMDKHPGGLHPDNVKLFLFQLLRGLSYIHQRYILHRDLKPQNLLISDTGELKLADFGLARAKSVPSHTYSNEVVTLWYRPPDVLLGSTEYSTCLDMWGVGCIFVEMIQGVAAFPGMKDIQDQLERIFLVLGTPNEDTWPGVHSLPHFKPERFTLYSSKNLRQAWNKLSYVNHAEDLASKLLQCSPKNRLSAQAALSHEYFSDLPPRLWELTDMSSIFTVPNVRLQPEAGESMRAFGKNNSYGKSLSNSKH

RAF1 = RAF1 (Homo sapiens (Human), UniProt P04049); assay: KINOMEscan kinase selectivity profiling; format: binding; conditions: read-out: Ambit KINOMEscan of compound I-5 at 10 μM (percent control %)
RET = RET (Homo sapiens (Human), UniProt P07949); assay: KINOMEscan kinase selectivity profiling; format: binding; conditions: read-out: Ambit KINOMEscan of compound I-5 at 10 μM (percent control %)
RET, sequence (P07949 29-1114): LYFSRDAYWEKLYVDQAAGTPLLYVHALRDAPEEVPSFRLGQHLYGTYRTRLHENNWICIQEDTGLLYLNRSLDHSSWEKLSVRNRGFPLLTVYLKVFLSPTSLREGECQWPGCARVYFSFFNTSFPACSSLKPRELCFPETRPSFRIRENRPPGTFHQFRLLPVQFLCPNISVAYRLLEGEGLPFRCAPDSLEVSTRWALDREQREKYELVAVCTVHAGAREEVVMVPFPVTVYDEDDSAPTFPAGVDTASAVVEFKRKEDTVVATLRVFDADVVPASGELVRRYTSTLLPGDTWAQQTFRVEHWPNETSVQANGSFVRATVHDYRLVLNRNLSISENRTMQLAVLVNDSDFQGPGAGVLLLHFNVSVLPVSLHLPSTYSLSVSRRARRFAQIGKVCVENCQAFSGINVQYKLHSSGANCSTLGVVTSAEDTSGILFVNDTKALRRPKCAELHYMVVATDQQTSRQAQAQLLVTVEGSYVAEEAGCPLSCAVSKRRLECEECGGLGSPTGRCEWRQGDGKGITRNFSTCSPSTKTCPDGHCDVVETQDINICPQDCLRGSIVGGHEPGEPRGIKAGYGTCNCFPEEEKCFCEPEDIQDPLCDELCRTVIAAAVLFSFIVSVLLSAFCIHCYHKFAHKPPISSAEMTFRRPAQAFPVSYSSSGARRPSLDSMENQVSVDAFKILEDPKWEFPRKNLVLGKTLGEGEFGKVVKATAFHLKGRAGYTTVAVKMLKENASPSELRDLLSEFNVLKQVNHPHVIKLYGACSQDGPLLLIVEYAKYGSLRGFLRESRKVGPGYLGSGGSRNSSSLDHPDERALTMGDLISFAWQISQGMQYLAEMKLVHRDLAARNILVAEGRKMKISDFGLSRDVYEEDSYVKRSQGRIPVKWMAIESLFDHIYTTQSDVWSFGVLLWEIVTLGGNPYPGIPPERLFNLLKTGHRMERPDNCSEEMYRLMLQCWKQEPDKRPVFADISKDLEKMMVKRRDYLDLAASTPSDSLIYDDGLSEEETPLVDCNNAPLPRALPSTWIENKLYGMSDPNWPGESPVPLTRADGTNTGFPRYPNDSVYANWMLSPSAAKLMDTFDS

RET(M918T) = RET(M918T) (Homo sapiens (Human), UniProt P07949, M918T); assay: KINOMEscan kinase selectivity profiling; format: binding; conditions: read-out: Ambit KINOMEscan of compound I-5 at 10 μM (percent control %)
RET(M918T), sequence (P07949 29-1114 M918T): as the sequence (P07949 29-1114) above, with M890T counted along it

RET(V804L) = RET(V804L) (Homo sapiens (Human), UniProt P07949, V804L); assay: KINOMEscan kinase selectivity profiling; format: binding; conditions: read-out: Ambit KINOMEscan of compound I-5 at 10 μM (percent control %)
RET(V804L), sequence (P07949 29-1114 V804L): as the sequence (P07949 29-1114) above, with V776L counted along it

RET(V804M) = RET(V804M) (Homo sapiens (Human), UniProt P07949, V804M); assay: KINOMEscan kinase selectivity profiling; format: binding; conditions: read-out: Ambit KINOMEscan of compound I-5 at 10 μM (percent control %)
RET(V804M), sequence (P07949 29-1114 V804M): as the sequence (P07949 29-1114) above, with V776M counted along it

RIPK1 = RIPK1 (Homo sapiens (Human), UniProt Q13546); assay: KINOMEscan kinase selectivity profiling; format: binding; conditions: read-out: Ambit KINOMEscan of compound I-5 at 10 μM (percent control %)
SRC = SRC (Homo sapiens (Human), UniProt P12931); assay: KINOMEscan kinase selectivity profiling; format: binding; conditions: read-out: Ambit KINOMEscan of compound I-5 at 10 μM (percent control %)
TAK1 = TAK1 (Homo sapiens (Human), UniProt O43318); assay: KINOMEscan kinase selectivity profiling; format: binding; conditions: read-out: Ambit KINOMEscan of compound I-5 at 10 μM (percent control %)
TAOK3 = TAOK3 (Homo sapiens (Human), UniProt Q9H2K8); assay: KINOMEscan kinase selectivity profiling; format: binding; conditions: read-out: Ambit KINOMEscan of compound I-5 at 10 μM (percent control %)
TIE1 = TIE1 (Homo sapiens (Human), UniProt P35590); assay: KINOMEscan kinase selectivity profiling; format: binding; conditions: read-out: Ambit KINOMEscan of compound I-5 at 10 μM (percent control %)
TIE1, sequence (P35590 22-1138): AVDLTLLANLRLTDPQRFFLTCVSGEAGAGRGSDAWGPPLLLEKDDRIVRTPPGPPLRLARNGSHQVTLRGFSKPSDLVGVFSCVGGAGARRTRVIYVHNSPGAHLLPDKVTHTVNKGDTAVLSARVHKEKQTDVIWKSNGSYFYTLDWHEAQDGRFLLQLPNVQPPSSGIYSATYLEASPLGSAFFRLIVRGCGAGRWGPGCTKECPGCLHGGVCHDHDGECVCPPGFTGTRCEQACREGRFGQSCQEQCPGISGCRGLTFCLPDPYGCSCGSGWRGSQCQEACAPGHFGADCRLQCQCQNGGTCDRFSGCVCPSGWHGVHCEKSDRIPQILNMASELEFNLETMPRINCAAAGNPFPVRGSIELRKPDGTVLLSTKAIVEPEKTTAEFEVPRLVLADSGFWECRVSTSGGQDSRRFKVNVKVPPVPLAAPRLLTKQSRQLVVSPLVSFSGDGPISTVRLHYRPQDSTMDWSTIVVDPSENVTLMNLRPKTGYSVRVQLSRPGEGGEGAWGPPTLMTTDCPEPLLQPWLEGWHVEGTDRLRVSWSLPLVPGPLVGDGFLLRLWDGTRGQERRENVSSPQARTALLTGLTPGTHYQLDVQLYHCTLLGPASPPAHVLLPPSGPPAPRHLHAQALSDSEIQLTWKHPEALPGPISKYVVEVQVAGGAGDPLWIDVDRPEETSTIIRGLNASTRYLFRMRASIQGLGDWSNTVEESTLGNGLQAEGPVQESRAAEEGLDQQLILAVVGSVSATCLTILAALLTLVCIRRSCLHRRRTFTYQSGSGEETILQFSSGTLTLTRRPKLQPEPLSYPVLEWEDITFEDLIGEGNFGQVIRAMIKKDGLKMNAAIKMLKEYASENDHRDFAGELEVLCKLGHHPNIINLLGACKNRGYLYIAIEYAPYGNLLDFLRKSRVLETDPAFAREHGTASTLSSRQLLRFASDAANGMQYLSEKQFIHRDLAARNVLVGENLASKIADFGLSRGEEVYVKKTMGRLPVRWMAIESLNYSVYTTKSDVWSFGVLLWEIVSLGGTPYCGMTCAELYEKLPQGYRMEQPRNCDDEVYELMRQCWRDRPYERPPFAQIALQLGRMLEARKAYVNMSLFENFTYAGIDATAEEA

TIE2 = TIE2 (Homo sapiens (Human), UniProt Q02763); assay: KINOMEscan kinase selectivity profiling; format: binding; conditions: read-out: Ambit KINOMEscan of compound I-5 at 10 μM (percent control %)
TRKB = TRKB (Homo sapiens (Human), UniProt Q16620); assay: KINOMEscan kinase selectivity profiling; format: binding; conditions: read-out: Ambit KINOMEscan of compound I-5 at 10 μM (percent control %)
TRKC = TRKC (Homo sapiens (Human), UniProt Q16288); assay: KINOMEscan kinase selectivity profiling; format: binding; conditions: read-out: Ambit KINOMEscan of compound I-5 at 10 μM (percent control %)

Structure (SMILES): CCN1CCN(Cc2cc(NC(=O)c3ccc(C)c(-c4ccc5nc(NC(=O)C6CC6)sc5n4)c3)cc(C(F)(F)F)c2)CC1 [Compound I-5]
- IC50 (JAK2): 660 nM
- remaining binding at 10 µM (ABL1(Q252H)): 0%
- remaining binding at 10 µM (ABL1(T315I)): 0%
- remaining binding at 10 µM (ABL2): 0%
- remaining binding at 10 µM (BRAF(V600E)): 0%
- remaining binding at 10 µM (CDC2L2): 0%
- remaining binding at 10 µM (CDKL3): 0%
- remaining binding at 10 µM (CIT): 0%
- remaining binding at 10 µM (CSF1R): 0%
- remaining binding at 10 µM (EPHA4): 0%
- remaining binding at 10 µM (EPHA6): 0%
- remaining binding at 10 µM (EPHA8): 0%
- remaining binding at 10 µM (EPHB1): 0%
- remaining binding at 10 µM (EPHB2): 0%
- remaining binding at 10 µM (EPHB4): 0%
- remaining binding at 10 µM (FES): 0%
- remaining binding at 10 µM (FGR): 0%
- remaining binding at 10 µM (FLT4): 0%
- remaining binding at 10 µM (HPK1): 0%
- remaining binding at 10 µM (INSRR): 0%
- remaining binding at 10 µM (ITK): 0%
- remaining binding at 10 µM (KIT): 0%
- remaining binding at 10 µM (KIT(L576P)): 0%
- remaining binding at 10 µM (KIT(V559D)): 0%
- remaining binding at 10 µM (LYN): 0%
- remaining binding at 10 µM (MAP4K2): 0%
- remaining binding at 10 µM (MERTK): 0%
- remaining binding at 10 µM (p38-delta): 0%
- remaining binding at 10 µM (PDGFRA): 0%
- remaining binding at 10 µM (PDGFRB): 0%
- remaining binding at 10 µM (PFTAIRE2): 0%
- remaining binding at 10 µM (PFTK1): 0%
- remaining binding at 10 µM (RAF1): 0%
- remaining binding at 10 µM (RET): 0%
- remaining binding at 10 µM (RET(M918T)): 0%
- remaining binding at 10 µM (RET(V804L)): 0%
- remaining binding at 10 µM (RET(V804M)): 0%
- remaining binding at 10 µM (RIPK1): 0%
- remaining binding at 10 µM (SRC): 0%
- remaining binding at 10 µM (TAK1): 0%
- remaining binding at 10 µM (TAOK3): 0%
- remaining binding at 10 µM (TIE1): 0%
- remaining binding at 10 µM (TIE2): 0%
- remaining binding at 10 µM (TRKB): 0%
- remaining binding at 10 µM (TRKC): 0%
